Laboratory results as given in PMC6792352, “Limited Chemical Structural Diversity Found to Modulate Thyroid Hormone Receptor in the Tox21 Chemical Library” (Environmental Health Perspectives, 2019).
Counter-ions that a name gives are not always drawn.

Experiment: in vitro
Conditions: rat, gh3-tre-luc cells, AC50 (uM) modified / 1000

Compound | CC50 at 24 h
CN[C@@H]1[C@@H](O)[C@@H](O[C@@H]2[C@@H](O)[C@H](O[C@H]3O[C@H](CN)[C@@H](O)[C@H](O)[C@H]3O)[C@@H](N)C[C@H]2NC(=O)[C@@H](O)CN)OC[C@]1(C)O [Isepamicin sulfate] | > 50 µM
CC1C2CC(CC2C2CCCC(O)C2)C1(C)C (stereo not drawn) [3-(5,5,6-Trimethylbicyclo[2.2.1]hept-2-yl)cyclohexanol] | 54.6 µM
O=C(c1ccccc1)C(O)c1ccccc1 (stereo not drawn) [Benzoin] | > 90 µM
CC1(C)S[C@@H]2[C@H](NC(=O)C(c3ccccc3)S(=O)(=O)O)C(=O)N2[C@H]1C(=O)O (stereo partly drawn) [Sulbenicillin disodium] | > 50 µM
CCC(C)COC(=O)CC(C)C (stereo not drawn) [2-Methylbutyl isovalerate] | > 90 µM
CCSCC [Diethyl sulfide] | > 100 µM
Cc1c(-c2cccnc2)c2ccccc2n1CCCCC(=O)O [UK-156819] | > 90 µM
C=CCOC(C)=O [Allyl acetate] | > 90 µM
CC(=O)N[C@@H](CCC(=O)O)C(=O)O [N-Acetyl-L-glutamic acid] | > 50 µM
CCCCCCCCCCCC(=O)N(CC)CC [N,N-Diethyldodecanamide] | > 90 µM
O=C(NO)c1ccccc1 [N-Hydroxybenzamide] | > 90 µM
Clc1cc(Cl)c2c(c1)N=C1CCCCCN1C2 [1,3-dichloro-6,7,8,9,10,12-hexahydroazepino[2,1-b]quinazoline hydrochloride (1:1)] | > 50 µM
CN1CCN(C2=Nc3ccccc3Sc3ccc(Cl)cc32)CC1 [Clothiapine] | 15.2 µM
O=C(O)CCC/C=C\C[C@H]1[C@H](/C=C/[C@H](O)COc2cccc(Cl)c2)[C@@H](O)C[C@H]1O [Cloprostenol sodium] | > 50 µM
Cc1cc([N+](=O)[O-])ccc1N [2-Methyl-4-nitroaniline] | > 90 µM
CC(C)c1ncc([N+](=O)[O-])n1C [Ipronidazole] | > 50 µM
C1CN(CCOCCN2CCOCC2)CCO1 [4,4'-(Oxydiethylene)bis(morpholine)] | > 90 µM
O=S(=O)(Cl)c1c(Cl)cccc1Cl [2,6-Dichlorobenzenesulfonylchloride] | > 90 µM
CCCCCCCCCCCCCCCCN [Hexadecylamine] | > 50 µM

Compound | CC50 at 24 h
CC(CC(=O)Cl)CC(C)(C)C (stereo not drawn) [3,5,5-Trimethylhexanoyl chloride] | > 90 µM
Oc1ccc(-c2ccc(O)cc2)cc1 [4,4'-Biphenyldiol] | > 90 µM
c1ccc(B(c2ccccc2)c2ccccc2)cc1 [Triphenylborane] | > 90 µM
C=CCN1C(=O)C(CC(C)C)NC1=S (stereo not drawn) [Albutoin] | > 50 µM
NCCc1ccc(O)c(O)c1 [Dopamine hydrochloride] | 55.3 µM
CCCCCC(C)O (stereo not drawn) [2-Heptanol] | > 90 µM
CCCC(C)CC (stereo not drawn) [3-Methylhexane] | > 90 µM
C[C@@H](O)C[C@@H](C)O [2,4-Pentanediol] | > 90 µM
COC(=O)c1ccccc1S(=O)(=O)NC(=O)Nc1nc(C)nc(OC)n1 [Metsulfuron-methyl] | > 90 µM
COc1cc2c(cc1OC)-c1cc3ccc(OC)c(OC)c3c[n+]1CC2 [Palmatine chloride hydrate] | > 90 µM
O=c1c(-c2ccccc2)c1-c1ccccc1 [Diphenylcyclopropenone] | 5.54 µM
CC(C)CC(C)O (stereo not drawn) [4-Methyl-2-pentanol] | > 90 µM
Oc1ccc2ccccc2c1 [2-Naphthalenol] | > 90 µM
CCCCC(CC)COCC1CO1 (stereo not drawn) [2-Ethylhexyl glycidyl ether] | > 90 µM
OC[C@H]1O[C@@H](Oc2ccc(O)cc2)[C@H](O)[C@@H](O)[C@@H]1O [Arbutin] | > 90 µM
CSc1ccc(Cl)cc1 [4-Chlorophenyl methyl sulfide] | > 90 µM
CCOC(=O)c1ccc(C)cc1 [Ethyl 4-methylbenzoate] | > 90 µM
CC(=O)c1ccc2ccc3ccccc3c2c1 [3-Acetylphenanthrene] | > 90 µM
C[C@@H]1[C@H](O)[C@@H](C)/C=C/C=C/CC/C=C/C=C/C=C/C=C/[C@H](O[C@@H]2O[C@H](C)[C@@H](O)[C@H](N)[C@@H]2O)C[C@@H]2O[C@](O)(C[C@@H](O)[C@H](O)CC[C@@H](O)C[C@@H](O)C[C@@H](O)CC(=O)O[C@H]1C)C[C@H](O)[C@H]2C(=O)O [Nystatin] | > 50 µM

Compound | CC50 at 24 h
CC1CCC(CO)CC1 (stereo not drawn) [4-Methylcyclohexanemethanol] | > 90 µM
CCN(CC)CCOCCOC(=O)C1(c2ccccc2)CCCC1 [Carbetapentane] | > 50 µM
CC(=O)c1cnccn1 [Acetylpyrazine] | > 100 µM
NCCCN1CCOCC1 [4-Morpholinepropanamine] | > 90 µM
CCCOc1ccc2nc(NC(=O)OC)sc2c1 [Tioxidazole] | 2.38 µM
CCC(=O)O[C@@H]1C[C@H]2CC[C@]1(C)C2(C)C (racemic) [Isobornyl propanoate] | > 90 µM
Oc1ccc(Cl)cc1 [4-Chlorophenol] | > 90 µM
O=C(Cl)c1ccccc1[N+](=O)[O-] [2-Nitrobenzoyl chloride] | > 90 µM
CC(C)(C)c1ccc(OC(=O)c2ccccc2O)cc1 [4-tert-Butylphenyl salicylate] | > 90 µM
CCOC(=O)[C@@H](C)Oc1ccc(Oc2nc3ccc(Cl)cc3o2)cc1 [Fenoxaprop-P-ethyl] | > 90 µM
CCCCOC(CC)OC(C)COC(O)CC (stereo not drawn) [Tripropylene glycol butyl ether] | > 90 µM
C[C@]12CCC(=O)C=C1[C@@H]1C[C@@H]1[C@H]1[C@@H]3[C@@H]4C[C@@H]4[C@@]4(CCC(=O)O4)[C@@]3(C)CC[C@@H]12 [Drospirenone] | > 50 µM
CCCCCCCCCCCCCCN(CCO)CCO [2,2'-(Tetradecylimino)diethanol] | 23.3 µM
O=CNNC=O [1,2-Diformylhydrazine] | > 90 µM
CCCCOC(=O)CCS [Butyl 3-mercaptopropionate] | > 90 µM
COc1ccc(CN(CCN(C)C)c2ncccn2)cc1 [Thonzylamine hydrochloride] | > 50 µM
O=[N+]([O-])c1ccc(/C=N\O)o1 [Nifuroxime] | > 50 µM
C1COCCN1 [Morpholine] | > 100 µM
CCN(CC)CCOc1ccc(Cc2ccccc2)cc1 [Tesmilifene] | 10.9 µM

Same assay, conditions: rat, gh3-tre-luc cells, AC50 (uM) modified / 1000, Tox21_110001=Tox21_112759; viability, 1 nM T3 present, 24 h

Compound | CC50 at 24 h
S=C(S)N1CCNCC1 [1-Piperazinecarbodithioic acid] | > 50 µM

Same assay, conditions: rat, gh3-tre-luc cells, AC50 (uM) modified / 1000, Tox21_110001=Tox21_113486; viability, 1 nM T3 present, 24 h

Compound | CC50 at 24 h
CCCCCc1cc(O)c2c(c1)OC(C)(C)c1ccc(C)cc1-2 [Cannabinol] | 13.4 µM

Same assay, conditions: rat, gh3-tre-luc cells, AC50 (uM) modified / 1000, Tox21_110001=Tox21_200069; viability, 1 nM T3 present, 24 h

Compound | CC50 at 24 h
CC(=O)NNc1ccccc1 [1-Acetyl-2-phenylhydrazine] | 7.15 µM

Same assay, conditions: rat, gh3-tre-luc cells, AC50 (uM) modified / 1000, Tox21_110001=Tox21_201575; viability, 1 nM T3 present, 24 h

Compound | CC50 at 24 h
COCCl [Chloromethyl methyl ether] | > 90 µM

Same assay, conditions: rat, gh3-tre-luc cells, AC50 (uM) modified / 1000, Tox21_110001=Tox21_202151; viability, 1 nM T3 present, 24 h

Compound | CC50 at 24 h
CCN(N=O)C(N)=O [1-Ethyl-1-nitrosourea] | > 90 µM

Same assay, conditions: rat, gh3-tre-luc cells, AC50 (uM) modified / 1000, Tox21_110001=Tox21_202449; viability, 1 nM T3 present, 24 h

Compound | CC50 at 24 h
Clc1nc(Cl)nc(Cl)n1 [2,4,6-Trichloro-s-triazine] | > 90 µM

Same assay, conditions: rat, gh3-tre-luc cells, AC50 (uM) modified / 1000, Tox21_110001=Tox21_202460; viability, 1 nM T3 present, 24 h

Compound | CC50 at 24 h
O=C(O)CC[N+](=O)[O-] [3-Nitropropionic acid] | > 90 µM

Same assay, conditions: rat, gh3-tre-luc cells, AC50 (uM) modified / 1000, Tox21_110001=Tox21_300621; viability, 1 nM T3 present, 24 h

Compound | CC50 at 24 h
ClC1=C(Cl)[C@]2(Cl)[C@@H]3[C@@H](Cl)[C@H]4O[C@H]4[C@@H]3[C@@]1(Cl)C2(Cl)Cl [Heptachlor epoxide] | 48.8 µM

Same assay, conditions: rat, gh3-tre-luc cells, AC50 (uM) modified / 1000, Tox21_110001=Tox21_301548; viability, 1 nM T3 present, 24 h

Compound | CC50 at 24 h
CCCCCCCc1ccc(O)cc1 [4-Heptylphenol] | > 90 µM

Same assay, conditions: rat, gh3-tre-luc cells, AC50 (uM) modified / 1000, Tox21_110001=Tox21_302297; viability, 1 nM T3 present, 24 h

Compound | CC50 at 24 h
COc1ccccc1OC [1,2-Dimethoxybenzene] | > 90 µM

Same assay, conditions: rat, gh3-tre-luc cells, AC50 (uM) modified / 1000, Tox21_110001=Tox21_302749; viability, 1 nM T3 present, 24 h

Compound | CC50 at 24 h
CCN(N=O)C(N)=O [1-Ethyl-1-nitrosourea] | > 60 µM

Same assay, conditions: rat, gh3-tre-luc cells, AC50 (uM) modified / 1000, Tox21_110001=Tox21_302939; viability, 1 nM T3 present, 24 h

Compound | CC50 at 24 h
COCCl [Chloromethyl methyl ether] | > 30 µM
